Data published in PubChem BioAssay (NCI).
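In this assay, cells in 96-well plates receive the compound at five concentrations for 48 hours. Endpoints are linearly interpolated between the surrounding concentrations. The concentration for full growth arrest is given as TGI.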

Legend:
Assay in all cases: growth of human tumour cells (NCI), 48 h
MDA-MB-231 breast = test system: MDA-MB-231 breast
HOP-92 NSCLC = test system: HOP-92 NSCLC
HS 578T breast = test system: HS 578T breast
SR leukemia = test system: SR leukemia
OVCAR-5 ovarian = test system: OVCAR-5 ovarian
A498 renal = test system: A498 renal
ACHN renal = test system: ACHN renal
SF-295 CNS = test system: SF-295 CNS
SNB-19 CNS = test system: SNB-19 CNS
UACC-257 melanoma = test system: UACC-257 melanoma
UACC-62 melanoma = test system: UACC-62 melanoma
OVCAR-8 ovarian = test system: OVCAR-8 ovarian
HT29 colon = test system: HT29 colon
K-562 leukemia = test system: K-562 leukemia
HL-60(TB) leukemia = test system: HL-60(TB) leukemia
U251 CNS = test system: U251 CNS
MDA-N = test system: MDA-N
CCRF-CEM leukemia = test system: CCRF-CEM leukemia
RPMI-8226 leukemia = test system: RPMI-8226 leukemia
NCI-H522 lung = test system: NCI-H522 lung
SK-MEL-5 melanoma = test system: SK-MEL-5 melanoma
LOX IMVI melanoma = test system: LOX IMVI melanoma
MDA-MB-435 = test system: MDA-MB-435
HCT-15 colon = test system: HCT-15 colon
HCC-2998 colon = test system: HCC-2998 colon
SF-539 CNS = test system: SF-539 CNS
IGROV1 ovarian = test system: IGROV1 ovarian
KM12 colon = test system: KM12 colon
SNB-75 CNS = test system: SNB-75 CNS
SK-OV-3 ovarian = test system: SK-OV-3 ovarian
MALME-3M melanoma = test system: MALME-3M melanoma
SW-620 colon = test system: SW-620 colon
A549 NSCLC = test system: A549 NSCLC
NCI-H460 lung = test system: NCI-H460 lung
NCI/ADR-RES ovarian = test system: NCI/ADR-RES ovarian
OVCAR-4 ovarian = test system: OVCAR-4 ovarian
786-0 renal = test system: 786-0 renal
DU-145 prostate = test system: DU-145 prostate
TK-10 renal = test system: TK-10 renal
HCT-116 colon = test system: HCT-116 colon
M14 melanoma = test system: M14 melanoma
NCI-H23 lung = test system: NCI-H23 lung
HOP-62 NSCLC = test system: HOP-62 NSCLC
EKVX NSCLC = test system: EKVX NSCLC
T-47D breast = test system: T-47D breast
SK-MEL-28 melanoma = test system: SK-MEL-28 melanoma
RXF 393 renal = test system: RXF 393 renal
COLO 205 colon = test system: COLO 205 colon
SN12C renal = test system: SN12C renal
NCI-H226 lung = test system: NCI-H226 lung
PC-3 prostate = test system: PC-3 prostate
CAKI-1 renal = test system: CAKI-1 renal
OVCAR-3 ovarian = test system: OVCAR-3 ovarian
MCF7 breast = test system: MCF7 breast
SF-268 CNS = test system: SF-268 CNS

Measured: TGI

CC1(C)N=C(C(N)=O)c2ncn(N)c2N1
> 100 µM: all assays above
